Like-named read-outs stand apart in the source and are kept apart here.
How the values were obtained:
HDAC1 = HDAC1 (Rattus norvegicus, UniProt Q4QQW4); type: biochemical
Procedure: After centrifugation, the cleared extract was used for immunoprecipitation of HDAC1. […] (Amersham Pharmacia Biotech, Piscataway, NJ, USA) in a total volume of 50 μl enzyme assay buffer (25 mM HEPES (pH 7.4), 1 M sucrose, 0.1 mg ml^−1 BSA and 0.01% (v v^−1) Triton X-100). Incubation was performed for 45 min at 37°C (immunoprecipitates) or 30 min at room temperature (HeLa nuclear extract). Before addition of substrate, HDAC inhibitors were added at increasing concentrations and preincubated for 10 min at room temperature. After incubation, the reaction was quenched with 35 μl stop buffer (1 M HCl and 0.4 M acetic acid). Released [^3H]acetic acid was extracted with 800 μl ethyl acetate and quantified by scintillation counting. Equal amounts of HDAC1 were immunoprecipitated as indicated by western blot analysis. Histone deacetylase 1 activity results are presented as mean±s.d. of three independent experiments on a single lysate. […] Finally, we measured the activities of different HDAC isotypes present in partially purified extract from rat liver using the fluorescent HDAC substrates MAL (unselective), B61 (selective for HDAC1, and to some extent also converted by HDAC3) and B12 (selective for HDAC6).

HDAC6 = target: T1, HDAC6 (Rattus norvegicus, UniProt A0A8I6GM68); assay: biochemical; type: biochemical
T1 construct: partially purified extract from rat liver; from tissue; host or cells: rat liver, partially purified extract
T1 sequence (A0A8I6GM68 whole entry): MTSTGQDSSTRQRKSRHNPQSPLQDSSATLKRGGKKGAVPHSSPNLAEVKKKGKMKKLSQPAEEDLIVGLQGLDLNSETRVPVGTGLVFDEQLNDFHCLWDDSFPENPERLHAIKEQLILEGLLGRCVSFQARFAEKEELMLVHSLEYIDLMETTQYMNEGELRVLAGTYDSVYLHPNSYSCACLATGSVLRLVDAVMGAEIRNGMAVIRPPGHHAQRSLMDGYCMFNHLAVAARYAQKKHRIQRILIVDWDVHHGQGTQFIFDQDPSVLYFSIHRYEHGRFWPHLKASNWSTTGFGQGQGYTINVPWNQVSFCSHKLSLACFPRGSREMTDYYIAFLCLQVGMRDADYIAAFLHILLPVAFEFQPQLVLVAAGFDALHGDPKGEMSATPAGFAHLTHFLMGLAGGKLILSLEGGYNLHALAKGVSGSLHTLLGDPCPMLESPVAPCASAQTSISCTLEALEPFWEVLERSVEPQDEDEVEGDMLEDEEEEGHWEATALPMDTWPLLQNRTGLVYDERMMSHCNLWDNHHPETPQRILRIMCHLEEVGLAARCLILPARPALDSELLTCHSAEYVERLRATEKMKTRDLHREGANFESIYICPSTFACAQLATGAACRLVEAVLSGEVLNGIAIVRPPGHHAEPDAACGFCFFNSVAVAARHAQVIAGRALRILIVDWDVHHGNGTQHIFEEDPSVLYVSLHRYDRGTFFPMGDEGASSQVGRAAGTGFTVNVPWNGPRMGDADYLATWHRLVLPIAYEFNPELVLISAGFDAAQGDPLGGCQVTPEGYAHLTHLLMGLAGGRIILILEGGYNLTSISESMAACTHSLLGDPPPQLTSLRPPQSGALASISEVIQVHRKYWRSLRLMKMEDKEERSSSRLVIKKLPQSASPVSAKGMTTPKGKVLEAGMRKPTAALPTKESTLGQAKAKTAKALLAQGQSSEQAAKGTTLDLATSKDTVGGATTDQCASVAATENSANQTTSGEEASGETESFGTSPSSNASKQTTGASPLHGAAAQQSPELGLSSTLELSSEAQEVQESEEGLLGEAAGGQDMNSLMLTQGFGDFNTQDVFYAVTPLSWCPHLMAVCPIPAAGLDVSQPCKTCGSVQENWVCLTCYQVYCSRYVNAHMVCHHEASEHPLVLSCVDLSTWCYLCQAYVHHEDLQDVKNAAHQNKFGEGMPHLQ
Procedure: (§1) After centrifugation, the cleared extract was used for immunoprecipitation of HDAC1. […] Incubation was performed for 45 min at 37°C (immunoprecipitates) or 30 min at room temperature (HeLa nuclear extract). Before addition of substrate, HDAC inhibitors were added at increasing concentrations and preincubated for 10 min at room temperature. After incubation, the reaction was quenched with 35 μl stop buffer (1 M HCl and 0.4 M acetic acid). Released [^3H]acetic acid was extracted with 800 μl ethyl acetate and quantified by scintillation counting. Equal amounts of HDAC1 were immunoprecipitated as indicated by western blot analysis. Histone deacetylase 1 activity results are presented as mean±s.d. of three independent experiments on a single lysate. […] Finally, we measured the activities of different HDAC isotypes present in partially purified extract from rat liver using the fluorescent HDAC substrates MAL (unselective), B61 (selective for HDAC1, and to some extent also converted by HDAC3) and B12 (selective for HDAC6).

[1] = system: A2780 ovarian carcinoma cells; assay: A2780 tumour cell proliferation, MTT colorimetric assay; type: cell-based, human; settings: 4 days, mean±s.d.
Procedure: Control cells were treated with the combined respective vehicle.

[2] = system: H3 acetylation and p21waf1,cip1 in A2780 ovarian carcinoma cells; assay: Western blot of acetylated H3 and p21waf1,cip1 in A2780 cells (class I HDAC readout); type: cell-based, human; settings: 24 h, western blot
Procedure: (§2) Human A2780 ovarian carcinoma cells were incubated with the indicated concentrations of HDAC inhibitors. Total cell lysates were prepared and analysed by SDS–PAGE. […] To control for equal loading, blots were stripped and re-probed with mouse monoclonal antiactin IgM (Ab-1, Oncogene Research products, Merck, Darmstadt, Germany). […] Protein–antibody complexes were then visualised by chemiluminescence (Pierce Chemical Co., Perbioscience, Erembodegem, Belgium) or fluorescence (Odyssey) according to manufacturer's instructions.
(§3) Total cell lysates were prepared and analysed by SDS–PAGE. Levels of acetylated H3 and tubulin, and of total levels of H3 and tubulin and of p21^waf1, cip1 and Hsp70 and c-raf protein, were detected using rabbit polyclonal and mouse monoclonal antibodies, followed by ECL detection as indicated in the Methods section. To control for equal loading, blots were stripped and re-probed with antibodies against actin and the nuclear protein Lamin B1. A representative experiment out of three is shown.

[3] = system: tubulin acetylation and Hsp70 in A2780 ovarian carcinoma cells; assay: Western blot of acetylated tubulin and Hsp70 in A2780 cells (HDAC6 readout); type: cell-based, human; settings: for concentration at which tubulin acetylation (and Hsp70 induction) is evident: western blot
Procedure: as §2, §3

[4] = system: HDAC isotypes in partially purified extract from rat liver (MAL, unselective); settings: read-out: Liver extract MAL unselective IC50, substrate MAL
Procedure: as §1

Sequence of HDAC1 (Q4QQW4 whole entry): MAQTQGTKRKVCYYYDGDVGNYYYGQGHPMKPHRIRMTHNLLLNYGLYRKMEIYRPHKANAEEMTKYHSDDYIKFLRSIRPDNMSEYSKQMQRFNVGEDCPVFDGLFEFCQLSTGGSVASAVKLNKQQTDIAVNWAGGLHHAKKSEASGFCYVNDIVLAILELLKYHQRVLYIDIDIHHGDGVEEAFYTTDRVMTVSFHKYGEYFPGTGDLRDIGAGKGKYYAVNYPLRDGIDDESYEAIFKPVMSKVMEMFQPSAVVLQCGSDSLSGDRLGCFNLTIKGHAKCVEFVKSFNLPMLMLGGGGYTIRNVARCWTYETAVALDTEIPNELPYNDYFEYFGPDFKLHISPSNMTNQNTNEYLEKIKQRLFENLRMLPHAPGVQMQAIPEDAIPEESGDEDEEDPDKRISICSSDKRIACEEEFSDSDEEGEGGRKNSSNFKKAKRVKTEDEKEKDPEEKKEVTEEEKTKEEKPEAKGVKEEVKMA

Row | SMILES | IC50 [1] | concentration at which H3 acetylation is induced [2] | IC50 [4] | concentration at which tubulin acetylation (and Hsp70 induction) is evident ([3]; 24 h) | further results
1 | Nc1ccccc1NC(=O)c1ccc(CNC(=O)OCc2cccnc2)cc1 [MS-275] | 376 ± 169 nM | 3000 nM | – | – | Liver extract B61 HDAC1 IC50 (HDAC1; rat liver extract, substrate B61): Inactive; Liver extract B12 HDAC6 IC50 (HDAC6; rat liver extract, substrate B12): Inactive; effect on tubulin acetylation or Hsp70 levels ([3]; 3 μM, 24 h): did not affect tubulin acetylation or Hsp70 levels
2 | Cc1[nH]c2ccccc2c1CCNCc1ccc(/C=C/C(=O)NO)cc1 [Panobinostat] | – | 100 nM | 75 ± 4 nM | 100 nM | IC50 (HDAC6): 89 ± 12 nM; substrate preference B61 (HDAC1/HDAC3) vs B12 (HDAC6) (HDAC6; rat liver HDAC preparation): equipotent activity towards both substrates; IC50 ([1]; Homo sapiens, A2780, 96 h): 4.6 ± 1.8 nM
3 | CC(/C=C/C(=O)NO)=C\[C@@H](C)C(=O)c1ccc(N(C)C)cc1 [TSA, Trichostatin A] | 23 ± 8 nM | 300 nM | 12 ± 1.2 nM | 300 nM | IC50 (HDAC6; read-out: Liver extract B12 HDAC6 IC50): 20.7 ± 2.6 nM
4 | O=C(CCCCCCC(=O)Nc1ccccc1)NO [Vorinostat, suberoylanilide hydroxamic acid] | – | – | – | – | IC50 (HDAC1; read-out: Liver extract B61 HDAC1 IC50): 1030 ± 201 nM; cellular potency for HDAC6 vs HDAC1 (higher for HDAC6) ([3]; tubulin acetylation vs H3 acetylation): 10 fold

Reference: publication PMC2360244 (British Journal of Cancer, 2007)
